Test system: RAW cells
Experiment: Evaluation of cytosolic delivery where pH sensitive carrier and physiologically active substance were used independently
Format: cell-based
Conditions: 30 μg/mL peptide-FITC or OVA-FITC, carrier added separately (160 nmol pH sensitive compound, 100 nmol amphipathic substance); FIG. 22
Protocol: On the previous day, RAW cells were spread on a matsunami glass bottom dish and cultured with 10% FBS-containing MEM. After rinsing with PBS, MEM was added, followed by a one hour incubation. 1900 μL of MEM containing fluorescence-labeled peptide-FITC or fluorescence-labeled OVA-FITC at a concentration of 30 μg/mL was prepared and substituted with the culture medium. Moreover, a solution of 100 μL of a pH sensitive carrier was added, followed by 16 to 20 hours of incubation in the culture medium in such a state that both were mixed. It was already confirmed that the fluorescence-labeled peptide-FITC and fluorescence-labeled OVA-FITC were each not supported with the pH sensitive carrier in a mixed state with a pH sensitive carrier-containing solution. After rinsing with PBS and three hours post-incubation with 2 mL of fresh MEM, the cells were rinsed with PBS, followed by substitution with phenol red-free DMEM and observation through a fluorescence microscope. The culture was carried out by use of an incubator (MCO20AIC) set at 5% CO2 and 37° C. and the cells were observed through a fluorescence microscope (Axiovert 200M—soft: Axio vision 3.0—light source: Fluo Arc).

fluorescence-labeled OVA-FITC: FITC fluorescence-labeled OVA model protein
localisation of fluorescence-labeled peptide-FITC or OVA-FITC in cells (cytosolic delivery): remained in the endosome
